Entries after “also recorded” stand apart in the source; their conditions may differ. Like-named read-outs stand apart in the source and are kept apart here.
Experiments:
[1] = system: Platelet release reaction; assay: Platelet release reaction (ATP, luciferin-luciferase, lumiaggregometer); assay type: cell-based, human; conditions: for IC50: Homo sapiens, Platelet, lumiaggregometer
Procedure: (§1) The effects of thio-CHCl-AP4 A and the reference agent on both ADP and collagen induced platelet aggregation, and release reaction were tested in a lumiaggregometer. Normal human PRP was separated from sodium […] anticoagulated (0.38%) blood. Platelet aggregation and release reaction induced by 5 μM ADP or 1 μg collagen/ml. The lumiaggregometer was equipped to assay both platelet aggregation and the luciferase reaction of ATP simultaneously a) in the absence of agent (control); and b) in the presence of various concentrations of thio-CHCl-AP4 A or CHCl-AP4 A. The measured amount of ATP released from the activated platelets by the agonist represents the release reaction. The luminescence produced by the luciferin-luciferase reaction was linear with respect to the amount of ATP released.

[2] = system: ADP-induced platelet aggregation; assay: ADP-induced platelet aggregation in platelet-rich plasma (turbidimetric method of Born, aggregometer); assay type: cell-based, human; conditions: for IC50: ADP-induced aggregation, PRP, mean of three (*) or two determinations
Procedure: (§2) Unless otherwise provided below, the experimental procedures were performed according to the procedures provided in U.S. Pat. No. 5,049.550 (Zamecnik '550), the entire contents of which are incorporated herein by reference. Some alternative procedures (e.g., release reaction, PF3 assays) and a number of additional studies also are provided (e.g., cytoplasmic calcium mobilization, fibrinogen binding site, agonists other than ADP, platelet cAMP and distribution of CHCl-AP4 A into blood components). Blood was collected in a 0.1 volume of 3.8% sodium citrate from healthy human volunteers who had abstained from antiplatelet agents for at least 10 days. Platelet rich plasma (PRP) was separated by a gradual centrifugation and adjusted to 3.3×10^8 platelets per ml plasma. PRP has been utilized in the Examples unless otherwise stated.
An initial screening was performed for inhibitory effects of several agents (including, e.g., thio-CHCl-AP4 A and CHCl-AP4 A as reference agent)) on platelet aggregation induced by ADP. Platelet aggregation was measured with platelet-rich plasma (PKP) by the turbidimetric method of Born (J. Physiol. 162:67, 1962) in an aggregometer (Chrono-log, Model 530 VS). Platelet aggregation induced by 5 μM ADP in the absence or presence of 5 μM agents was examined. […] The IC50 value of the CHCl-AP4 A (reference agent) was consistent with the value reported previously (P. Zamecnik et al., Proc. Nat'l. Acad. Sci. USA 89:2370-2373 (1992)).

[3] = system: ADP and collagen induced platelet aggregation; assay: Platelet aggregation in lumiaggregometer (ADP or collagen); assay type: cell-based, human; conditions: for IC50: Homo sapiens, Platelet, lumiaggregometer
Procedure: as §1

Platelet Factor 3 (PF3) = assay: Platelet factor 3 (PF3) activation, Stypven clotting time; assay type: cell-based, human; conditions: for Clotting Time (Stypven), ADP-stimulated PF3 activity / Net Change of clotting time / activity at 10 µM: 10 μM agent, 10 μM ADP; for Clotting Time (Stypven), ADP-stimulated PF3 activity: mean of two, baseline 45.8, saline control 38.9; for Net Change of clotting time: saline control -6.9; for activity at 10 µM: Homo sapiens, Platelet, 5 min, saline control 100, read-out: % Change of clotting time
Procedure: PF3 activity of the platelets is enhanced by ADP stimulation and measured by the Stypven clotting time (P. Zamecnik et al., PNAS (USA) 89:2370-2373 (1992)). The data represent a mean of two experiments. Fresh normal human platelet-rich plasma (3×10^8 platelets per ml) was preincubated in the presence or absence of the agents (10 μM) at 37° C. for 5 min and then tested for PF3 activity of the platelets that was stimulated by 10 μM ADP.

[4] = Molecular stability in whole blood (HPLC of blood extracts); assay type: in vitro ADME, human; conditions: for Main Peak / Total / X1 (second peak) / X2 (second peak): 250 μM agent, mean of two
Procedure: To test the molecular stability of the agents, blood was incubated with each agent at […] for 4 hours. Samplings at the indicated incubation times were extracted and CHC -AP4 A or thio-CHCl-AP4 A were assayed in an HPLC (Waters 600E pump and controller) with quartenary amine anion exchange column (Whatman Partisil 10) and analysed (Beckman System Gold). The retention times for CHCl-AP4 A and thio-CHCl-AP4 A were 3.39 and 5.95, respectively. Peak areas were integrated and used to construct a standard curve for a concentration range (1, 2, 4, 6, 8 and 10 μM). Both CHCl-AP4 A and thio-CHCl-AP4 A were pure, as observed by a single peak on HPLC, and by a linear relationship between the concentration of the agent and HPLC peak areas. Normal human blood anticoagulated with 0.38% sodium citrate was incubated in the presence of250 μM CHCl-AP4 A or thio-CHCl-AP4 A at […] for 4 hours. Blood samples were extracted with 3% perchloric acid and neutralized with K2 CO3. The extracts were kept at -80° C. until an assay using an HPLC. The values in Table 9 represent a mean of two experiments and are expressed in nmol/ml blood. […] An estimated quantity of CHCl-AP4 A major peak indicated a slow degradation showing a reduction of 30% after 4 hours incubation. At least 80% of degradation product, possibly chloromethylene monoadenosine triphosphate (AppCp) is associated with the second peak (X1). […] The second peak of the blood extract with thio-CHCl-AP4 A may be an isomer (X2), e.g., monothio compound (Aps pCppA or AppCpps A). It was not detected by HPLC of the pure compound, but registered a small portion (<10%) in the blood extraction at time 0 and about 20% of the major peak thereafter.

[5] = system: ADP-induced platelet aggregation; assay: Time-dependent effects on ADP-induced aggregation (stability of the agents by functional assay in PRP); assay type: cell-based, human; conditions: for ADP-induced aggregation: 10 μM ADP; for stability of inhibitory effect / agent in PRP: 37° C., up to 3 hours, in words
Procedure: as §2
To observe the stability of the agents by functional assay, PRP was incubated with 2.51 μM thio-CHCl-AP4 A or 5 μM CHCl-AP4 A at 37° C. for 3 hours. The concentrations of inhibiting agents used in this experiment were relatively low, especially for the thio compound. Samples taken at the times indicated were tested for ADP-induced (10 μM) aggregation.

SMILES | IC50 ([1]; agonist 5 μM ADP) [µM] | IC50 ([1]; agonist collagen 1 μg/ml) [µM] | IC50 [2] [µM] | IC50 ([3]; agonist 5 μM ADP) [µM] | IC50 ([3]; agonist collagen 1 μg/ml) [µM] | Clotting Time (Stypven), ADP-stimulated PF3 activity (Platelet Factor 3 (PF3)) [s] | Net Change of clotting time (Platelet Factor 3 (PF3)) | activity at 10 µM (Platelet Factor 3 (PF3)) [%] | Main Peak ([4]; 0 min) [nmol/ml blood] | Total ([4]; 0 min) [nmol/ml blood] | Main Peak ([4]; 60 min) [nmol/ml blood] | Total ([4]; 60 min) [nmol/ml blood] | Main Peak ([4]; 120 min) [nmol/ml blood] | Total ([4]; 120 min) [nmol/ml blood] | Main Peak ([4]; 240 min) [nmol/ml blood] | Total ([4]; 240 min) [nmol/ml blood] | stability of inhibitory effect / agent in PRP [5] | other results
Nc1ncnc2c1ncn2[C@@H]1O[C@H](COP(=O)(O)OP(=O)(O)C(Cl)P(=O)(O)OP(=O)(O)OC[C@H]2O[C@@H](n3cnc4c(N)ncnc43)[C@H](O)[C@@H]2O)[C@@H](O)[C@H]1O (stereo partly drawn) [CHCl-AP4 A] | 4.5 | 35 | 3.28 | 14 | > 100 | 43.1 | -2.7 | 39.1 | 249.2 | 249.2 | 249.0 | 274.8 | 222.0 | 258.6 | 173.2 | 236.3 | becomes unstable when it is kept in PRP more than 60 minutes at 37 °C | effect on collagen-induced release reaction ([1]; agonist collagen, in words): inhibited; effect on collagen-induced aggregation ([3]; agonist collagen, in words): not inhibited; X1 (second peak) ([4]; 0 min): trace; X1 (second peak) ([4]; 60 min): 25.8 nmol/ml blood; X1 (second peak) ([4]; 120 min): 36.6 nmol/ml blood; X1 (second peak) ([4]; 240 min): 63.3 nmol/ml blood; recovery at 1 h, 250 µM ([4]; human, blood, 60 minutes, read-out: Total extraction efficiency): 110%; metabolised at 4 h, 250 µM ([4]; human, blood, after 4 hours incubation, read-out: reduction of major peak (slow degradation)): 30%; degradation product associated with the second peak (X1) ([4]; whole blood): At least 80%; ADP-induced aggregation ([5]; 5 μM agent, 0 min in PRP at 37° C., without agent 82%): 13%; ADP-induced aggregation ([5]; 5 μM agent, 60 min in PRP at 37° C., without agent 69%): 31%; ADP-induced aggregation ([5]; 5 μM agent, 120 min in PRP at 37° C., without agent 59%): 47%; ADP-induced aggregation ([5]; 5 μM agent, 180 min in PRP at 37° C., without agent 43%): 42%
Nc1ncnc2c1ncn2[C@@H]1O[C@H](COP(O)(=S)OP(=O)(O)C(Cl)P(=O)(O)OP(O)(=S)OC[C@H]2O[C@@H](n3cnc4c(N)ncnc43)[C@H](O)[C@@H]2O)[C@@H](O)[C@H]1O (stereo partly drawn) [Thio-CHCl-AP4 A, P^1, P^4 -dithio -P^2 -P^3 monochloromethylene 5', 5'" diadenosine P^1, P^4 -tetraphosphate] | 0.7 | 1.7 | 0.81 | 1.6 | 9 | 44.5 | -1.3 | 18.8 | 157.7 | 172.0 | 172.3 | 205.9 | 180.0 | 211.4 | 173.7 | 202.0 | very stable for at least a 3 hour period | in vitro platelet aggregation inhibitory activity relative to AP4 A and analogs ([2]; compared to AP4 A, known analogs, non-thio counterpart, in words, listed as Aps pCHClpps A): nearly an order of magnitude greater than the inhibitory activity of naturally-occurring AP4 A; also recorded: significantly greater than the activities of known AP4 A analogs; also recorded: significantly greater platelet aggregation inhibitory activity than that of its corresponding non-thio counterpart; inhibitory effect on ADP-stimulated PF3 activity (Platelet Factor 3 (PF3); compared to CHCl-AP4 A, in words): significantly greater than that of the non-thio reference agent; X2 (second peak) ([4]; 0 min): 14.3 nmol/ml blood; X2 (second peak) ([4]; 60 min): 33.6 nmol/ml blood; X2 (second peak) ([4]; 120 min): 31.4 nmol/ml blood; X2 (second peak) ([4]; 240 min): 38.3 nmol/ml blood; second peak (X2), % of the major peak ([4]; after time 0): about 20 % of the major peak; stability in blood ([4]; at least 4 hours at 37° C., in words): very stable in blood for at least 4 hours at 37 °C; recovery at 2 h, 250 µM ([4]; human, blood, 120 minutes, read-out: Total extraction efficiency): 85%; recovery at 1 h, 250 µM ([4]; human, blood, samples after 60 minutes, read-out: Extraction efficiency): 81 to 85%; recovery at 0 h, 250 µM ([4]; human, blood, time 0, read-out: Extraction efficiency): 69%; second peak (X2) portion in the blood extraction ([4]; time 0): < 10%; ADP-induced aggregation ([5]; 2.5 μM agent, 0 min in PRP at 37° C., without agent 82%): 21%; ADP-induced aggregation ([5]; 2.5 μM agent, 60 min in PRP at 37° C., without agent 69%): 7%; ADP-induced aggregation ([5]; 2.5 μM agent, 120 min in PRP at 37° C., without agent 59%): 5%; ADP-induced aggregation ([5]; 2.5 μM agent, 180 min in PRP at 37° C., without agent 43%): 6%

Source: patent US5681823A, “P^1, P^4 -dithio-P^2 -P^3 -monochloromethylene 5', 5'"-diadenosine P^1, P^4 -tetraphosphate as antithrombotic agent” (PRP Inc., priority 1996, dated 1997)
